Data published in ChEMBL document CHEMBL1145312, “Structure-activity relationships of triazolopyridine oxazole p38 inhibitors: identification of candidates for clinical development” (Bioorg Med Chem Lett, 2006).
≈ marks a conversion by molar mass, not a printed value.

Legend:
Monocyte = test: Inhibition of LPS-induced TNFalpha production in human monocytes; type: functional, cell-based
[1] = biological target: Mitogen-activated protein kinase 14 (Homo sapiens, UniProt Q16539); test: Inhibition of p38alpha
Homo sapiens = species on record: Homo sapiens; test: Inhibition of LPS-induced TNFalpha production in human whole blood; type: functional, organism-based
[2] = Hepatocyte extraction ratio in human; type: ADME, cell-based; settings: hepatocytes
[3] = Hepatocyte microsomal extraction ratio in human; settings: hepatic microsomes
[4] = Permeability from apical to basolateral side of Caco-2 cell membrane; type: ADME, cell-based; settings: human
[5] = Permeability from basolateral to apical side of Caco-2 cell membrane; type: ADME, cell-based; settings: human
[6] = Plasma clearance in monkey; type: ADME, organism-based, Macaca mulatta; settings: rhesus monkey
[7] = Bioavailability in rat; type: ADME, organism-based; settings: in vivo
Rattus norvegicus = species on record: Rattus norvegicus; test: Inhibition of LPS-induced TNFalpha release in rat; type: functional
[8] = Half life in rat; type: ADME, organism-based; settings: in vivo
[9] = Half life in monkey; type: ADME, organism-based, Macaca mulatta; settings: rhesus monkey, in vivo
[10] = Solubility in PBS buffer at ph 6.5; type: physicochemical
[11] = Volume of distribution in monkey; type: ADME, organism-based, Macaca mulatta; settings: rhesus monkey, in vivo; read-out: Vdss
[12] = Volume of distribution in rat; type: ADME, organism-based; settings: in vivo, read-out: Vdss
[13] = Plasma clearance in rat; type: ADME, organism-based
[14] = Bioavailability in monkey; type: ADME, organism-based, Macaca mulatta; settings: rhesus monkey, in vivo

Sequence of Mitogen-activated protein kinase 14 (Q16539 whole entry): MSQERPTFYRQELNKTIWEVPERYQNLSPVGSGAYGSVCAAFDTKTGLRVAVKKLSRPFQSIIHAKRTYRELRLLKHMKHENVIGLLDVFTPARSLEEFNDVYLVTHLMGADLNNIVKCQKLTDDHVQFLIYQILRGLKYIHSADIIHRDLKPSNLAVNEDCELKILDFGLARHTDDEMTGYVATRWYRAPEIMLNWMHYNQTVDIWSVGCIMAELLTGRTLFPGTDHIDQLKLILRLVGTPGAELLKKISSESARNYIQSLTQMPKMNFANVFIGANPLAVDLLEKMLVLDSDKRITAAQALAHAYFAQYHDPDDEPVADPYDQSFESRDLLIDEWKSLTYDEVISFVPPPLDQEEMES

SMILES | IC50 (Monocyte) [nM] | IC50 [1] [nM] | IC50 (Homo sapiens) [nM] | hepatic extraction ratio [2] | hepatic extraction ratio [3] | also measured
CCOc1ccccc1-c1nnc2ccc(-c3ocnc3-c3ccc(F)cc3)cn12 | 10 | 0.4 | 697 | > 0.5 | – | –
CC(C)c1nnc2ccc(-c3ocnc3-c3c(F)cc(F)cc3F)cn12 | 60 | 7.2 | 650 | – | < 0.3 | –
CC1(c2nnc3ccc(-c4ocnc4-c4ccc(F)cc4F)cn23)CC1 | 30 | 0.7 | 245 | > 0.5 | – | –
Fc1ccc(-c2ncoc2-c2ccc3nnc(C4CCC4)n3c2)cc1 | 49 | 17.7 | – | > 0.5 | – | –
Fc1ccc(-c2ncoc2-c2ccc3nnc(C4CC4)n3c2)cc1 | 186 | 10.9 | 4650 | > 0.5 | – | –
CCNc1nnc2ccc(-c3ocnc3-c3ccccc3)cn12 | 40 | 5.4 | 1710 | > 0.5 | – | –
Fc1cc(F)c(-c2ncoc2-c2ccc3nnc(C4CC4)n3c2)cc1F | 40 | 7.8 | 565 | – | < 0.3 | –
FC(F)(F)Cc1nnc2ccc(-c3ocnc3-c3ccccc3)cn12 | 915 | 83.2 | – | > 0.5 | – | –
Fc1ccc(-c2ncoc2-c2ccc3nnc(N4CCOCC4)n3c2)cc1 | 1440 | 11.8 | – | – | < 0.3 | –
Fc1ccc(F)c(-c2ncoc2-c2ccc3nnc(C4CC4)n3c2)c1 | 31.6 | 24 | 1400 | – | < 0.3 | –
CCc1nnc2ccc(-c3ocnc3-c3ccccc3)cn12 | 672 | 54.5 | – | > 0.5 | – | –
CC1(c2nnc3ccc(-c4ocnc4-c4cc(F)c(F)cc4F)cn23)CC1 | 28.3 | 2.3 | 263 | – | < 0.3 | –
CC1(c2nnc3ccc(-c4ocnc4-c4cc(F)ccc4F)cn23)CC1 | 45.8 | 3 | 385 | – | < 0.3 | –
CCN(C)c1nnc2ccc(-c3ocnc3-c3ccccc3)cn12 | 80 | 9.2 | – | > 0.5 | – | –
Fc1ccc(-c2ncoc2-c2ccc3nnc(C4CCC4)n3c2)c(F)c1 | 40 | 3.75 | – | > 0.5 | – | –
CC(C)(C)c1nnc2ccc(-c3ocnc3-c3ccc(F)cc3)cn12 | 38.7 | 3.5 | 470 | – | < 0.3 | –
Fc1ccc(-c2ncoc2-c2ccc3nnc(-c4ccccc4)n3c2)cc1 | 90 | 12.3 | 5350 | > 0.5 | – | –
CC(C)c1nnc2ccc(-c3cnoc3-c3cc(F)ccc3F)cn12 | 63 | 33.2 | – | – | – | Papp A→B [4]: 41 ×10⁻⁶ cm/s; Papp B→A [5]: 29 ×10⁻⁶ cm/s
CC1(c2nnc3ccc(-c4ocnc4-c4ccc(F)cc4)cn23)CCC1 | 40 | 14 | – | > 0.5 | – | –
Fc1ccc(-c2ncoc2-c2ccc3nncn3c2)cc1 | > 5000 | 19.5 | – | – | < 0.3 | –
Fc1ccc(-c2ncoc2-c2ccc3nnc(N4CCCC4)n3c2)cc1 | 52 | 15.4 | 935 | > 0.5 | – | –
c1ccc(-c2ncoc2-c2ccc3nnc(C4CC4)n3c2)cc1 | 150 | 47.2 | – | > 0.5 | – | –
CN(C)c1nnc2ccc(-c3ocnc3-c3ccc(F)cc3)cn12 | 165 | 15.3 | – | > 0.5 | – | –

Now from value to molecule, other results behind:

IC50 (Monocyte) [nM] | IC50 [1] [nM] | IC50 (Homo sapiens) [nM] | hepatic extraction ratio [2] | hepatic extraction ratio [3] | SMILES | also measured
14.1 | 8.8 | 220 | – | < 0.3 | CC(C)(C)c1nnc2ccc(-c3ocnc3-c3cc(F)ccc3F)cn12 | –
10 | 4.3 | – | > 0.5 | – | Cc1ccc(F)c(-c2ncoc2-c2ccc3nnc(C(C)C)n3c2)c1 | –
54.8 | 5.6 | – | – | < 0.3 | CC(C)c1nnc2ccc(-c3ocnc3-c3cc(F)c(F)cc3Cl)cn12 | –
24.5 | 6.2 | 297 | – | – | CC(C)c1nnc2ccc(-c3[nH]cnc3-c3cc(F)ccc3F)cn12 | Papp A→B [4]: 1 ×10⁻⁶ cm/s; Papp B→A [5]: 32 ×10⁻⁶ cm/s
11.6 | 6.6 | 260 | > 0.5 | – | Cc1cc(-c2ncoc2-c2ccc3nnc(C(C)C)n3c2)ccc1F | –
47.2 | 12.4 | 631 | – | – | CC(C)c1nnc2ccc(-c3ocnc3-c3ccc(F)c(Cl)c3)cn12 | clearance [6]: 5.7 mL/min/kg; bioavailability [7]: 9.4%; ED50 (Rattus norvegicus): 0.5 mg/kg; half-life [8]: 0.9 h; half-life [9]: 4.7 h; solubility [10]: 2.8 µg/mL (≈ 7.85 µM); Vd [11]: 1.4 L/kg; Vd [12]: 1.3 L/kg; clearance [13]: 17 mL/min/kg; bioavailability [14]: 31%
20 | 2.2 | 600 | > 0.5 | < 0.3 | CC(C)c1nnc2ccc(-c3ocnc3-c3ccc(Cl)cc3F)cn12 | –
10 | 4.6 | 265 | > 0.5 | – | CC(C)c1nnc2ccc(-c3ocnc3-c3ccc(F)cc3F)cn12 | –
135 | 37.8 | – | > 0.5 | – | CC(C)c1nnc2ccc(-c3ocnc3-c3cccc(F)c3)cn12 | –
122 | 8 | – | – | < 0.3 | CC(C)c1nnc2ccc(-c3ocnc3-c3ccc(F)c(Br)c3)cn12 | –
